According to PubChem BioAssay AID1963860 (Molecular Pharmacology Branch, DTP, NCI, 2024):

Tested on: CN0375-F725-PDC KRAS spheroid viability
Assay: Anticancer human tumor CN0375-F725-PDC patient-derived colon carcinoma cell line growth inhibition [KRAS2]
Conditions: spheroids with HUVEC and MSC; for IC50: curve of first compound; for viability, T/C: stronger effect = lower value; active means viability on the fitted dose curve at most 10% of control; inactive means the rest
Method in brief: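 KRAS-mutant tumor cells were grown as spheroids with HUVEC endothelial cells and human MSCs as stroma. Targeted agents were tested alone and with KRAS pathway inhibitors. Doses started at or near clinical Cmax, or 10 microM, descending half-log.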

[1] = second compound 0.1 µM, first compound 0.0316 µM
[2] = second compound 0.1 µM, first compound 0.1 µM
[3] = second compound 0.1 µM, first compound 0.316 µM
[4] = second compound 0.1 µM, first compound 1 µM
[5] = second compound 0.316 µM, first compound 0.0316 µM
[6] = second compound 0.316 µM, first compound 0.1 µM
[7] = second compound 0.316 µM, first compound 0.316 µM
[8] = second compound 0.316 µM, first compound 1 µM
[9] = second compound 1 µM, first compound 0.0316 µM
[10] = second compound 1 µM, first compound 0.1 µM
[11] = second compound 1 µM, first compound 0.316 µM
[12] = second compound 1 µM, first compound 1 µM
[13] = second compound 3.16 µM, first compound 0.0316 µM
[14] = second compound 3.16 µM, first compound 0.1 µM
[15] = second compound 3.16 µM, first compound 0.316 µM
[16] = second compound 3.16 µM, first compound 1 µM
[17] = second compound 0.1 µM, first compound 0.000316 µM
[18] = second compound 0.1 µM, first compound 0.001 µM
[19] = second compound 0.1 µM, first compound 0.00316 µM
[20] = second compound 0.1 µM, first compound 0.01 µM
[21] = second compound 0.316 µM, first compound 0.000316 µM
[22] = second compound 0.316 µM, first compound 0.001 µM
[23] = second compound 0.316 µM, first compound 0.00316 µM
[24] = second compound 0.316 µM, first compound 0.01 µM
[25] = second compound 1 µM, first compound 0.000316 µM
[26] = second compound 1 µM, first compound 0.001 µM
[27] = second compound 1 µM, first compound 0.00316 µM
[28] = second compound 1 µM, first compound 0.01 µM
[29] = second compound 3.16 µM, first compound 0.000316 µM
[30] = second compound 3.16 µM, first compound 0.001 µM
[31] = second compound 3.16 µM, first compound 0.00316 µM
[32] = second compound 3.16 µM, first compound 0.01 µM
[33] = second compound 10 µM, first compound 0.000316 µM
[34] = second compound 10 µM, first compound 0.001 µM
[35] = second compound 10 µM, first compound 0.00316 µM
[36] = second compound 10 µM, first compound 0.01 µM
[37] = second compound 10 µM, first compound 0.0316 µM
[38] = second compound 10 µM, first compound 0.1 µM
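Further: spheroids exposed to agents for 7 days.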

Cn1nccc1Nc1nccc(-c2cc3c(s2)C(C)(C)N(CCN2CCOCC2)C3=O)n1 + C=CC(=O)N1CCN(c2nc(OCC3CCCN3C)nc3c2CCN(c2cccc4cccc(C)c24)C3)CC1CC#N
2230 nM: IC50 (second compound 0.316 µM)
inactive: viability, T/C (second compound 0.0316 µM, first compound 0.0316 µM) 100% | viability, T/C (second compound 0.0316 µM, first compound 0.1 µM) 97.3% | viability, T/C (second compound 0.0316 µM, first compound 0.316 µM) 76.9% | viability, T/C (second compound 0.0316 µM, first compound 1 µM) 68.9% | viability, T/C (second compound 0.0316 µM, first compound 3.16 µM) 52.7% | viability, T/C (second compound 0.0316 µM, first compound 10 µM) 39% | viability, T/C [1] 95.7% | viability, T/C [2] 93.4% | viability, T/C [3] 77.2% | viability, T/C [4] 63.4% | viability, T/C (second compound 0.1 µM, first compound 3.16 µM) 50.4% | viability, T/C (second compound 0.1 µM, first compound 10 µM) 39.7% | viability, T/C [5] 91.5% | viability, T/C [6] 91.3% | viability, T/C [7] 70.3% | viability, T/C [8] 60.3% | viability, T/C (second compound 0.316 µM, first compound 3.16 µM) 46.9% | viability, T/C (second compound 0.316 µM, first compound 10 µM) 38% | viability, T/C [9] 87.6% | viability, T/C [10] 82.8% | viability, T/C [11] 52.4% | viability, T/C [12] 47% | viability, T/C (second compound 1 µM, first compound 3.16 µM) 39.1% | viability, T/C (second compound 1 µM, first compound 10 µM) 23.1% | viability, T/C [13] 27.7% | viability, T/C [14] 24.3% | viability, T/C [15] 11.9%
active: viability, T/C [16] 7.82% | viability, T/C (second compound 3.16 µM, first compound 3.16 µM) 5.81% | viability, T/C (second compound 3.16 µM, first compound 10 µM) 2.15%
739 nM: IC50 (second compound 1 µM)
2980 nM: IC50 (second compound 0.1 µM)
< 31.6 nM: IC50 (second compound 3.16 µM)
3930 nM: IC50 (second compound 0.0316 µM)

CN(C)C/C=C/C(=O)Nc1cc2c(Nc3ccc(F)c(Cl)c3)ncnc2cc1O[C@H]1CCOC1 + CC1OCC2(CCN(c3cnc(Sc4ccnc(N)c4Cl)c(N)n3)CC2)C1N
inactive: viability, T/C [17] 95.9% | viability, T/C [18] 87% | viability, T/C [19] 87.5% | viability, T/C [20] 85.9% | viability, T/C [1] 80.4% | viability, T/C [2] 80.4% | viability, T/C [21] 93.6% | viability, T/C [22] 87.7% | viability, T/C [23] 84% | viability, T/C [24] 86.9% | viability, T/C [5] 83.2% | viability, T/C [6] 75.7% | viability, T/C [25] 94.8% | viability, T/C [26] 97.5% | viability, T/C [27] 88.3% | viability, T/C [28] 85.5% | viability, T/C [9] 83.5% | viability, T/C [10] 77.7% | viability, T/C [29] 73.9% | viability, T/C [30] 77.7% | viability, T/C [31] 73.7% | viability, T/C [32] 71% | viability, T/C [13] 71.6% | viability, T/C [14] 72.3% | viability, T/C [33] 90.3% | viability, T/C [34] 96% | viability, T/C [35] 88% | viability, T/C [36] 84.6% | viability, T/C [37] 80.6% | viability, T/C [38] 82.8%
> 100 nM: IC50 (second compound 0.1 µM) | IC50 (second compound 0.316 µM) | IC50 (second compound 1 µM) | IC50 (second compound 3.16 µM) | IC50 (second compound 10 µM)

CC(C)n1nc(-c2ccc3oc(N)nc3c2)c2c(N)ncnc21 + C=CC(=O)N1CCN(c2nc(=O)n(-c3c(C)ccnc3C(C)C)c3nc(-c4c(O)cccc4F)c(F)cc23)C(C)C1
81.5 nM: IC50 (second compound 0.1 µM)
66.7 nM: IC50 (second compound 0.316 µM)
52.6 nM: IC50 (second compound 3.16 µM)
58.5 nM: IC50 (second compound 1 µM)
39.6 nM: IC50 (second compound 10 µM)
inactive: viability, T/C [17] 95.6% | viability, T/C [18] 90% | viability, T/C [19] 75.3% | viability, T/C [20] 67.4% | viability, T/C [1] 58.6% | viability, T/C [2] 47.9% | viability, T/C [21] 94% | viability, T/C [22] 90.9% | viability, T/C [23] 72% | viability, T/C [24] 68.8% | viability, T/C [5] 60.6% | viability, T/C [6] 44.5% | viability, T/C [25] 90.7% | viability, T/C [26] 93.2% | viability, T/C [27] 75.1% | viability, T/C [28] 64.8% | viability, T/C [9] 56.5% | viability, T/C [10] 45.3% | viability, T/C [29] 93.9% | viability, T/C [30] 91.7% | viability, T/C [31] 77.2% | viability, T/C [32] 64.5% | viability, T/C [13] 55.5% | viability, T/C [14] 44.6% | viability, T/C [33] 87.4% | viability, T/C [34] 77.9% | viability, T/C [35] 68.9% | viability, T/C [36] 58.2% | viability, T/C [37] 51.3% | viability, T/C [38] 45.2%

Cn1ncnc1[C@H]1c2n[nH]c(=O)c3cc(F)cc(c23)N[C@@H]1c1ccc(F)cc1 + C=CC(=O)N1CCN(c2nc(=O)n(-c3c(C)ccnc3C(C)C)c3nc(-c4c(O)cccc4F)c(F)cc23)C(C)C1
inactive: viability, T/C [17] 110% | viability, T/C [18] 103% | viability, T/C [19] 100% | viability, T/C [20] 103% | viability, T/C [1] 102% | viability, T/C [2] 98.2% | viability, T/C [21] 107% | viability, T/C [22] 114% | viability, T/C [23] 104% | viability, T/C [24] 96.3% | viability, T/C [5] 99.3% | viability, T/C [6] 99.9% | viability, T/C [25] 107% | viability, T/C [26] 104% | viability, T/C [27] 109% | viability, T/C [28] 104% | viability, T/C [9] 104% | viability, T/C [10] 99.5% | viability, T/C [29] 114% | viability, T/C [30] 110% | viability, T/C [31] 108% | viability, T/C [32] 104% | viability, T/C [13] 108% | viability, T/C [14] 99.7% | viability, T/C [33] 112% | viability, T/C [34] 106% | viability, T/C [35] 99.3% | viability, T/C [36] 96.8% | viability, T/C [37] 95.7% | viability, T/C [38] 93.5%
> 100 nM: IC50 (second compound 0.1 µM) | IC50 (second compound 0.316 µM) | IC50 (second compound 1 µM) | IC50 (second compound 3.16 µM) | IC50 (second compound 10 µM)

CCN1CCN(Cc2ccc(Nc3ncc(F)c(-c4cc(F)c5nc(C)n(C(C)C)c5c4)n3)nc2)CC1 + C=CC(=O)N1CCN(c2nc(=O)n(-c3c(C)ccnc3C(C)C)c3nc(-c4c(O)cccc4F)c(F)cc23)C(C)C1
947 nM: IC50 (second compound 10 µM)
> 1000 nM: IC50 (second compound 0.1 µM) | IC50 (second compound 0.316 µM) | IC50 (second compound 1 µM) | IC50 (second compound 3.16 µM)
inactive: viability, T/C [19] 105% | viability, T/C [20] 96.2% | viability, T/C [1] 88.9% | viability, T/C [2] 96.4% | viability, T/C [3] 107% | viability, T/C [4] 95.4% | viability, T/C [23] 106% | viability, T/C [24] 105% | viability, T/C [5] 86.8% | viability, T/C [6] 91.2% | viability, T/C [7] 107% | viability, T/C [8] 98.3% | viability, T/C [27] 104% | viability, T/C [28] 107% | viability, T/C [9] 89.6% | viability, T/C [10] 98.7% | viability, T/C [11] 115% | viability, T/C [12] 105% | viability, T/C [31] 108% | viability, T/C [32] 107% | viability, T/C [13] 93.9% | viability, T/C [14] 90.7% | viability, T/C [15] 111% | viability, T/C [16] 102% | viability, T/C [35] 101% | viability, T/C [36] 108% | viability, T/C [37] 87.8% | viability, T/C [38] 80.7% | viability, T/C (second compound 10 µM, first compound 0.316 µM) 97.8% | viability, T/C (second compound 10 µM, first compound 1 µM) 47.8%
